Data on 24 compounds can be found in patent US12595253B2, “Benzamides of pyrazolylamino-pyrimidinyl derivatives, and compositions and methods thereof” (LYNK PHARMACEUTICALS CO. LTD., priority 2019, dated 2026).

Common to all, as to type: biochemical
For test [1], the target named is T1, JAK1 (Homo sapiens, UniProt P23458).
T1 construct: purchased Carna Biosciences
Description: JAK1 microfluidic kinase assay (Caliper EZ Reader II, FAM labeled peptide substrate). The following applies: IC50 JAK1 (5 nM) (1 m MATP), JAK1 5 nM, 1 mM ATP. Here is the method:
(§1) Compounds were tested against JAK1, JAK2, JAK2V617F and TYK2. Assay Formats: JAK activity was determined in the reaction buffer 50 mM HEPES, 0.01% Brij35, 10 mM MgCl2, 2 mM DTT by a microfluidic assay. The phosphorylation of a FAM labeled peptide substrate was monitored in the Caliper EZ Reader II (Perkin Elmer). The assay condition for each batch of enzyme (Carna Biosciences) was optimized to obtain 10% conversion rate of peptide substrate. The test compounds were dissolved in DMSO to a stock concentration of 10 mM. 3-fold serially diluted compounds with top concentration of 5 μM were pre-incubated with JAK1, JAK2, JAK2V617F or TYK2 at indicated concentrations for 10 min at ambient temperature. The final DMSO concentration of assay mixture was 1%. […] The reaction was stopped by adding 50 mM EDTA. […] The percent inhibition was calculated by the following formula. % Inhibition=(Conversionmax−Conversionsample)/(Conversionmax−Conversionmin)*100 • Conversionmax means the conversion rate in the positive well without addition of compound • Conversionmin means the conversion rate in the well without addition of enzyme • Conversionsample means the conversion rate of test compounds The dose-response (percent inhibition) curve was plotted and IC50 values were determined by GraphPad software.

Test [2] concerns the target T2, JAK2V617F (Homo sapiens, UniProt O60674, V617F).
T2 construct: purchased Carna Biosciences
Description: JAK2V617F microfluidic kinase assay (Caliper EZ Reader II, FAM labeled peptide substrate). The following applies: JAK2V617F 2.5 nM, 1 mM ATP. Here is the method: as §1

The target of test [3] is T3, JAK2 (Homo sapiens, UniProt O60674).
T3 construct: purchased Carna Biosciences
Description: JAK2 microfluidic kinase assay (Caliper EZ Reader II, FAM labeled peptide substrate). Here is the method:
as §1

Setting [4] is: IC50 JAK2 ([…]) (1 mM ATP), 1 mM ATP.
The mark [5] stands for this setting: IC50 JAK2 ([…]) (Km ATP), Km ATP.

Where a name gives a salt, the structure may show the parent alone.

T2 sequence (O60674 whole entry V617F): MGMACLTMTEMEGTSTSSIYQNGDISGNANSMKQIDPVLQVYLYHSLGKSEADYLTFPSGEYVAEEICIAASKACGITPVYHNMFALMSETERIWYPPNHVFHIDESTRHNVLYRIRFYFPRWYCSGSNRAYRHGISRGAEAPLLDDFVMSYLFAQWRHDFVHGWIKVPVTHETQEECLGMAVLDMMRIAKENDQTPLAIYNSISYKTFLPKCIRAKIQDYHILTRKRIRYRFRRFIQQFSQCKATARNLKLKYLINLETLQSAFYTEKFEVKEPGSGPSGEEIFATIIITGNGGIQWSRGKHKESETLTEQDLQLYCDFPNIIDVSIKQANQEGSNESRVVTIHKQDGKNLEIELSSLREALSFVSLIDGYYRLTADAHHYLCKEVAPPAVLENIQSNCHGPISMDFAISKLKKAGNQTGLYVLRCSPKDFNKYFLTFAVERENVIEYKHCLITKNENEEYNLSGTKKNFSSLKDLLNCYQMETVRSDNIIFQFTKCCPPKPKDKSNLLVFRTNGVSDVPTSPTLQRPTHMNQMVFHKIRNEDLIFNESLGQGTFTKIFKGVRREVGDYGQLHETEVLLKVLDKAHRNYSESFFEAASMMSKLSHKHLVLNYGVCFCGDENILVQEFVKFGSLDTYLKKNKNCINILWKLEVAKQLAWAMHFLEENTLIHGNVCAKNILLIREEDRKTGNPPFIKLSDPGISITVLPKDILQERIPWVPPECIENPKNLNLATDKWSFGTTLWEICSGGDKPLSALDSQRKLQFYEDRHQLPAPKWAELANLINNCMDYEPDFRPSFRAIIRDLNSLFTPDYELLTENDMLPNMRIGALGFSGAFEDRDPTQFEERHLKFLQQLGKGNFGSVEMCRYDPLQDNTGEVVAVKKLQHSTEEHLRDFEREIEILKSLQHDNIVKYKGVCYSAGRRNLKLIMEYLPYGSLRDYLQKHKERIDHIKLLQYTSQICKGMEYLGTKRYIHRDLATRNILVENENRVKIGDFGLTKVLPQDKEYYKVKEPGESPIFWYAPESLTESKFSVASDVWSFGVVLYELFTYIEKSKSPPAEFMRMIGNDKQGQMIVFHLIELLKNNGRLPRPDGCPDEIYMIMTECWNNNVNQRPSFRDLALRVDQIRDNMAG
T1 sequence (P23458 whole entry): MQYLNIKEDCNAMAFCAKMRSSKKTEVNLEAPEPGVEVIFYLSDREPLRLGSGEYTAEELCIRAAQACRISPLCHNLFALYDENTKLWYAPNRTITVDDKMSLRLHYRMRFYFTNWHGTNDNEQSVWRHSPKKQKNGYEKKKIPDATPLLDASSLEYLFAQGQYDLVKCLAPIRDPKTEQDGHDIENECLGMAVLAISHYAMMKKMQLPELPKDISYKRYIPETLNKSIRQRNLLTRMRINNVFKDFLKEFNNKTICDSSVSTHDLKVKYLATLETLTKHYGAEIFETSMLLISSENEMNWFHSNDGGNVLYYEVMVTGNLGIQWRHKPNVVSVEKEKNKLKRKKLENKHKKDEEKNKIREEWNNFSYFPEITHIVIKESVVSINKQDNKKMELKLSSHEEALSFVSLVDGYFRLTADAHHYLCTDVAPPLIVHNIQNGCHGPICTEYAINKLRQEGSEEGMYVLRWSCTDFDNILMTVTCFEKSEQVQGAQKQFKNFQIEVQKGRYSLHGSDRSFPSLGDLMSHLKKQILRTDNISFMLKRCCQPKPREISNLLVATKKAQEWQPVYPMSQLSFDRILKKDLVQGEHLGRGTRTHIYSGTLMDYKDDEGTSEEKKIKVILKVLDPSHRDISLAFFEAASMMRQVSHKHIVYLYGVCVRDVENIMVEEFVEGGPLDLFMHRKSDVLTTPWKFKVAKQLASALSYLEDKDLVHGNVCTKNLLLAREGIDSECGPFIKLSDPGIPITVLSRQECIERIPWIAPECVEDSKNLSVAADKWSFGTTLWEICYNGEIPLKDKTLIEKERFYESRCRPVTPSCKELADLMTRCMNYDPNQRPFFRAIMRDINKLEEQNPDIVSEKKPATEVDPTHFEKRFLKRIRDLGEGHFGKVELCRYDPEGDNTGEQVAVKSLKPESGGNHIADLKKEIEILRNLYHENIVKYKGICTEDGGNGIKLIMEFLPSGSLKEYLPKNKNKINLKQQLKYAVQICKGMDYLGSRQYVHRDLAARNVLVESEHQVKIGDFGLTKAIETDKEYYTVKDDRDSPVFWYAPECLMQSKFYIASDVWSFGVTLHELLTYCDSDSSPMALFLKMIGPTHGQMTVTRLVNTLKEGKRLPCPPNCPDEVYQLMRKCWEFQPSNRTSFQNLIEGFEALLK
T3 sequence (O60674 whole entry): as the sequence (O60674 whole entry V617F) above, with F617V counted along it

As to `N#CCNC(=O)c1ccc(-c2nc(Nc3cnn(C4CCOCC4)c3)ncc2C(F)(F)F)cc1` [Example 153, N-(cyanomethyl)-4-(2-((1-(tetrahydro-2H-pyran-4-yl)-1H-pyrazol-4-yl)amino)-5-(trifluoromethyl)pyrimidin-4-yl)benzamide], the IC50 in test [1] was 235 nM; in test [2], 283 nM.

As to `Cc1cnc(Nc2cnn([C@H]3CC[C@@H](C#N)CC3)c2)nc1-c1ccc(C(=O)NCC#N)cc1` [Example 148, 4-(2-((1-(Cis-4-cyanocyclohexyl)-1H-pyrazol-4-yl)amino)-5-methylpyrimidin-4-yl)-N-(cyanomethyl)benzamide], the IC50 in test [1] is 13.7 nM; in test [2], 34.6 nM.

As to `Cc1cnc(Nc2cnn(C3CC(F)(F)C3)c2)nc1-c1ccc(C(=O)NCC#N)cc1` [Example 104, N-(cyanomethyl)-4-(2-((1-(3,3-difluorocyclobutyl)-1H-pyrazol-4-yl)amino)-5-methylpyrimidin-4-yl)benzamide], the values for the half-inhibitory concentration (IC50) in test [1] and in test [3] (setting [4]) were 280 nM and 1150 nM, respectively.

On to `CC[C@@H](C#N)NC(=O)c1ccc(-c2nc(Nc3cnn(C4CCC(O)CC4)c3)ncc2C)cc1` (stereo partly drawn) [Example 205, (S)—N-(1-cyanopropyl)-4-(2-((1-(4-hydroxycyclohexyl)-1H-pyrazol-4-yl)amino)-5-methylpyrimidin-4-yl)benzamide], for which the IC50 was 9.06 nM in test [1] and 0.52 nM in test [3] (setting [4]).

Consider `CCC[C@@H](C#N)NC(=O)c1ccc(-c2nc(Nc3cnn(C4CC4)c3)ncc2C)cc1` [Example 202, (S)—N-(1-cyanobutyl)-4-(2-((1-cyclopropyl-1H-pyrazol-4-yl)amino)-5-methylpyrimidin-4-yl)benzamide], for which the half-inhibitory concentration (IC50) in test [1] was found to be 2.97 nM; in test [2], 23.9 nM.

For the compound `Cc1cnc(Nc2cnn(C3CC3)c2)nc1-c1ccc(C(=O)N[C@H](C#N)C2CC2)cc1` [Example 194, (S)—N-(cyano(cyclopropyl)methyl)-4-(2-((1-cyclopropyl-1H-pyrazol-4-yl)amino)-5-methylpyrimidin-4-yl)benzamide], the half-maximal inhibitory concentration (IC50) is 5.65 nM in test [1] and 33.5 nM in test [2].

As for `CC[C@@H](C#N)NC(=O)c1ccc(-c2nc(Nc3cnn(C)c3)ncc2Cl)cc1` [Example 220, (S)-4-(5-chloro-2-((1-methyl-1H-pyrazol-4-yl)amino)pyrimidin-4-yl)-N-(1-cyanopropyl)benzamide], the concentration for half-maximal inhibition (IC50) in test [1] is 16.2 nM; in test [3] (setting [4]) it was 70 nM.

As for `Cc1cnc(Nc2cnn(C3CCNCC3)c2)nc1-c1ccc(C(=O)NCC(N)=O)cc1` [Example 82, N-(2-amino-2-oxoethyl)-4-(5-methyl-2-((1-(piperidin-4-yl)-1H-pyrazol-4-yl)amino)pyrimidin-4-yl)benzamide hydrochloride], the 50% inhibitory concentration (IC50) stood at 300 nM in test [1], 202 nM in test [3] (setting [4]) and 7.53 nM in test [3] (setting [5]).

With `[2H]c1c([2H])c(-c2nc(Nc3cnn(C4CC4)c3)ncc2Cl)c([2H])c([2H])c1C(=O)N[C@@H](C)C#N` [Example 162, (S)-4-(5-chloro-2-((1-cyclopropyl-1H-pyrazol-4-yl)amino)pyrimidin-4-yl)-N-(1-cyanoethyl)benzamide-2,3,5,6-d4], the IC50 in test [1] came to 4.61 nM; in test [3] (setting [4]), 1.12 nM.

In the case of `Cc1cnc(Nc2cnn(C)c2)nc1-c1ccc(C(=O)NCC2(O)CC2)cc1` [Example 32, N-((1-Hydroxycyclopropyl)methyl)-4-(5-methyl-2-((1-methyl-1H-pyrazol-4-yl)amino)pyrimidin-4-yl)benzamide], the half-maximal inhibitory concentration (IC50) in test [1] is 53 nM; in test [3] (setting [4]), 165 nM; in test [3] (setting [5]), 5.15 nM.

As to `Cc1cnc(Nc2cnn(C3CCN(C(=O)C4CC4)CC3)c2)nc1-c1ccc(C(=O)N[C@@H](C)C#N)nc1` [Example 151, (S)—N-(1-cyanoethyl)-5-(2-((1-(1-(cyclopropanecarbonyl)piperidin-4-yl)-1H-pyrazol-4-yl)amino)-5-methylpyrimidin-4-yl)picolinamide], the IC50 in test [1] amounted to 72.1 nM; in test [3] (setting [4]) it was 32.4 nM.

As for `Cc1cnc(Nc2cnn(CC(F)F)c2)nc1-c1ccc(C(=O)NCC#N)cc1` [Example 27, N-(Cyanomethyl)-4-(2-((1-(2,2-difluoroethyl)-1H-pyrazol-4-yl)amino)-5-methylpyrimidin-4-yl)benzamide], the half-inhibitory concentration (IC50) in test [3] (setting [4]) turned out to be 50.2 nM; in test [3] (setting [5]), 1.97 nM; in test [2] it was 104 nM.

`Cc1cnc(Nc2cnn(CC(C)(C)C#N)c2)nc1-c1ccc(C(=O)NCC(F)(F)F)cc1` [Example 81, 4-(2-((1-(2-Cyano-2-methylpropyl)-1H-pyrazol-4-yl)amino)-5-methylpyrimidin-4-yl)-N-(2,2,2-trifluoroethyl)benzamide]: in test [2], the IC50 worked out at 114 nM. This counts as sub-micromolar.

On to `N#CCNC(=O)c1ccc(-c2ccnc(Nc3cnn(C4CC4)c3)n2)cc1F` [Example 139, N-(Cyanomethyl)-4-(2-((1-cyclopropyl-1H-pyrazol-4-yl)amino)pyrimidin-4-yl)-2-fluorobenzamide], for which the IC50 in test [1] was found to be 291 nM; in test [3] (setting [4]), 219 nM; in test [3] (setting [5]), 5.3 nM.

In the case of `C[C@@H](C#N)NC(=O)c1ccc(-c2nc(Nc3cnn(C4CCN(C(=O)C(C)(C)C)CC4)c3)ncc2F)cc1` [Example 57, (S)—N-(1-cyanoethyl)-4-(5-fluoro-2-((1-(1-pivaloylpiperidin-4-yl)-1H-pyrazol-4-yl)amino)pyrimidin-4-yl)benzamide], the values for the IC50 in test [1] and in test [3] (setting [4]) were 132 nM and 39.1 nM, respectively.

As to `Cc1cnc(Nc2cnn(C3CCN(C(=O)C4(O)CC4)CC3)c2)nc1-c1ccc(C(=O)N[C@@H](C)C#N)cc1` [Example 79, (S)—N-(1-Cyanoethyl)-4-(2-((1-(1-(1-hydroxycyclopropanecarbonyl)piperidin-4=yl)-1H-pyrazol-4-yl)amino)-5-methylpyrimidin-4-yl)benzamide], the IC50 in test [2] is 0.44 nM. That is a sub-nanomolar value.

As to `CC[C@@H](C#N)NC(=O)c1ccc(-c2nc(Nc3cnn(C)c3)ncc2C)cc1` [Example 219, (S)—N-(1-cyanopropyl)-4-(5-methyl-2-((1-methyl-1H-pyrazol-4-yl)amino)pyrimidin-4-yl)benzamide], the figures for the IC50 in test [1] and in test [3] (setting [4]) were 5.53 nM and 42.5 nM, respectively.

For `CC1(C)CC(n2cc(Nc3ncc(Cl)c(-c4ccc(C(=O)NCC#N)cc4)n3)cn2)CC(C)(C)O1` [Example 181, 4-(5-Chloro-2-((1-(2,2,6,6-tetramethyltetrahydro-2H-pyran-4-yl)-1H-pyrazol-4-yl)amino)pyrimidin-4-yl)-N-(cyanomethyl)benzamide], the IC50 in test [1] was 11.5 nM; in test [3] (setting [4]), < 0.25 nM.

For `Cc1cnc(Nc2cnn(C3CCN(C)CC3)c2)nc1-c1ccc(C(=O)N2CC(C#N)C2)cc1` [Example 92, 1-(4-(5-Methyl-2-((1-(1-methylpiperidin-4-yl)-1H-pyrazol-4-yl)amino)pyrimidin-4-yl)benzoyl)azetidine-3-carbonitrile], the half-maximal inhibitory concentration (IC50) in test [1] was found to be 253 nM; in test [3] (setting [4]), 114 nM; in test [3] (setting [5]), 3.6 nM.

Take `Cc1cnc(Nc2cnn(C3CCN(C(=O)C(C)(C)O)CC3)c2)nc1-c1ccc(C(=O)NC(C)C#N)cc1` (stereo in doubt) [Example 52, (S)—N-(1-cyanoethyl)-4-(2-((1-(1-(2-hydroxy-2-methylpropanoyl)piperidin-4-yl)-1H-pyrazol-4-yl)amino)-5-methylpyrimidin-4-yl)benzamide]: the half-maximal inhibitory concentration (IC50) in test [1] was found to be 10.7 nM; in test [3] (setting [4]), 0.86 nM.

Regarding `N#CCNC(=O)c1ccc(-c2nc(Nc3cnn(C4CCN(C(=O)C5CC5)CC4)c3)ncc2C(F)(F)F)cc1` [Example 161, N-(cyanomethyl)-4-(2-((1-(1-(cyclopropanecarbonyl)piperidin-4-yl)-1H-pyrazol-4-yl)amino)-5-(trifluoromethyl)pyrimidin-4-yl)benzamide], the IC50 in test [1] and in test [3] (setting [4]) was > 5000 nM each time.

`Cc1cnc(Nc2cnn(C3CC(C)(C)OC(C)(C)C3)c2)nc1-c1ccc(C(=O)N[C@@H](C)C#N)c(F)c1` [Example 224, (S)—N-(1-Cyanoethyl)-2-fluoro-4-(5-methyl-2-((1-(2,2,6,6-tetramethyltetrahydro-2H-pyran-4-yl)-1H-pyrazol-4-yl)amino)pyrimidin-4-yl)benzamide]: the half-maximal inhibitory concentration (IC50) in test [1] was found to be 98.4 nM; in test [3] (setting [4]), 0.49 nM.

For the compound `Cc1cnc(Nc2cnn(C)c2)nc1-c1ccc(C(=O)NCCC#N)cc1` [Example 2, N-(2-Cyanoethyl)-4-(5-methyl-2-((1-methyl-1H-pyrazol-4-yl)amino)pyrimidin-4-yl)benzamide], the half-maximal inhibitory concentration (IC50) in test [1] was 33.6 nM; in test [3] (setting [4]), 57.2 nM; in test [3] (setting [5]), 1.77 nM.

Turning to `COC[C@@H](C#N)NC(=O)c1ccc(-c2nc(Nc3cnn(C4CC4)c3)ncc2C)cc1` [Example 187, (R)—N-(1-Cyano-2-methoxyethyl)-4-(2-((1-cyclopropyl-1H-pyrazol-4-yl)amino)-5-methylpyrimidin-4-yl)benzamide], the concentration for half-maximal inhibition (IC50) in test [1] worked out at 5.77 nM; in test [3] (setting [4]), 13.7 nM.
